{
  "source": "patent US9827309B2",
  "about": "“Treating cancer with a combination of a PD-1 antagonist and dinaciclib” (Merck Sharp & Dohme Corp., priority 2013, dated 2017)",
  "origin": "cited, not measured here",
  "conditions": "clinical trials; cited from earlier work",
  "data": [
    {"smiles": "CCc1cnn2c(NCc3ccc[n+]([O-])c3)cc(N3CCCC[C@H]3CCO)nc12", "note": "[Dinaciclib, 1-[3-ethyl-7-[[(1-oxido-3-pyridinyl)methyl]amino]pyrazolo[1,5-a]pyrimidin-5-yl]-2(S)-piperidineethanol]", "values": [
      {"measurement": "most common dose-limiting toxicity", "result": "neutropenia"}
    ]}
  ]
}
